Laboratory results published in US20240117431A1, “STEM-CELL BASED BIOMARKER DISCOVERY” (THE REGENTS OF THE UNIVERSITY OF CALIFORNIA, priority 2020, published 2024).

How the values were obtained:
UPRT(+)-microglia brains = assay: In vivo labeling of brain RNA in mice transplanted with UPRT-expressing human microglia, biotin dot blot; details: IP close to 150 mg/kg, 24-48 hours, FIG. 14
Procedure: 5-vinyl-uracil (Alfa Aesar #4437903) was prepared in sterile conditions at 4 times the concentration in 100% DMSO, then diluted to 25% DMSO by adding corn oil to a final concentration of 500 mM. The mixture was heated to 37° C. for […] until homogenous. Mice are weighed before intraperitoneal injection (IP) injection to ensure close to 150 mg/kg are injected per treatment. For an (˜20 g) adult mouse typically 60-70 μl are IP injected per treatment. Mice are monitored for signs of distress. After 24-48 hours of treatment, mice were sacrificed and brains were immediately placed into 2 ml of RNAlater and left in 4° C. for 3-5 days. After removing brains from RNAlater, they were homogenized with RNAse-free 1.4 mm steel beads (Next Advance SSB14B-RNA) for 60 seconds and centrifuged at 4° C. for 5 min, maximum speed to separate the fatty layer. The bottom layer is collected, homogenized with 200 ul chloroform and centrifuged for 20 minutes, at 4° C. The aqueous layer is collected and 500 ul isopropanol added. After centrifugation for 30 minutes 4° C., the RNA pellet is washed in 70% Ethanol twice. After removing ethanol, the RNA pellet is resuspended in nuclease-free water and nanodrop to determine the concentration. From each sample, 15 μg of RNA was subjected in tetrazine-biotin ligation at 37° C., 500 RPM for 3 hours. The biotinylated RNA was purified with RNA Zymo Clean and Concentrator #5 and eluted with nuclease-free water. 2 μg of purified RNA was spotted onto a N+ Hybond membrane and UV-crosslinked at 254 nm (120,000 uJ). Membrane is blocked in blocking buffer (0.12 M NaCl, 0.016 M Na2HPO4, 0.008 M NaH2PO4, 0.17 M SDS) and followed by incubation with high sensitivity streptavidin-HRP (Fisher Scientific, Cat #: P121130) at 1:5000 dilution in blocking buffer for 5 minutes. The membrane was washed twice in a Wash A buffer (1:10 dilution of blocking buffer) and twice in Wash B buffer (Tris-saline buffer). It was then incubated for 1-5 min. in ECL Chemiluminescent Substrate (Fisher Scientific, Cat #: P132106) and imaged on a ChemiDoc MP imaging system (Bio-Rad). […]

[1] = tested on: 3×MT-TgUPRT transfected HEK293 cells; assay: RNA fluorescence imaging via IEDDA (confocal microscopy); type: cell-based, Toxoplasma gondii; details: 1 mM, 24 hours, tetrazene biotin + fluorophore-streptavidin, FIG. 10A
Procedure: RNA fluorescence imaging via IEDDA: The cell culture dishes and glass coverslips were coated with poly-D-lysine (10 μg/ml) for 24 h at 37° C. and washed three times with autoclaved water to remove the excessive amount of poly-D lysine. HEK293 cells were seeded on glass coverslips at 2.5×105 in a 6-well plate. Twenty-four hours post-seeding, cells were transiently transfected with 1 μg WT- or MT-TgUPRT using jetPRIME transfection reagent according to the manufacturers manual (Polyplus Transfection, France). Twenty-four hours post-transfection, cells were treated with DMSO or 1 mM 5VU for 24 hours. After labeling, cells were washed 3× with DPBS, fixed and permeabilized for 30 min at room temperature with 3.7% paraformaldehyde and 0.15% Triton-X100. Cells were then washed three times (7 min/each) on orbital shaker with DPBS, blocked with Streptavidin (2 mg/mL in DPBS) for 30 minutes and followed with BSA (1 mg/ml in DPBS, 0.45% NaCl and 0.025% NaN3) for 30 min at room temperature, washed 2× with DPBS. Blocked cells were incubated with 200-500 μL of 1 mM biotin-tetrazine solution in water for 3 hours at 37° C. […] Slides were imaged via fluorescence confocal microscopy using a 63× oil immersion objective on a […] Carl Zeiss microscope. […]

`C=Cc1c[nH]c(=O)[nH]c1=O` [compound 2, 5-Vinylpyrimidine-2,4(1H,3H)-dione] was tested. Which “incorporation into brain RNA, UPRT(+)-microglia transplanted” value (UPRT(+)-microglia brains) did it give?
The value was “observable signals”.

What about the “incorporation into brain RNA, UPRT(−)-microglia brains” value (UPRT(+)-microglia brains) of the same molecule?
Its value is “significant biotin signal was not observed”.

And the “fluorescent signal of labeled RNA” value [1]?
The value was “fluorescent signal was observed only in the presence of both 2 and 3×MT-TgUPRT transfected cells”.
